The values below come from patent US11478496B2, “Treatments of prostate cancer” (THE FLORIDA INTERNATIONAL UNIVERSITY BOARD OF TRUSTEES, priority 2020, dated 2022).

Series [1] concerns BER reconstituted with purified Pol β, FEN1, and LIG I. The series is described as follows: Secondary gel-based BER assay reconstituted with purified core BER enzymes. In kind it is biochemical. The settings on record: 10 μM compound, THF substrate. Here is the method: The secondary screening assay was performed as described below in the “Materials and Methods” section. Lane 1 represents the substrate only. Lane 2 indicates the reaction mixture with 5 nM APE1. Lanes 3 and 4 correspond to the reaction mixture with 5 nM APE1, 10 nM pol β, 10 nM FEN1 and 20 nM LIG I in the absence and presence of dimethylsulfoxide (DMSO). Lanes 5 through 19 correspond to the reaction mixture with 5 nM APE1, 10 nM pol β, 10 nM FEN1 and 20 nM LIG I in the presence of indicated compounds. The experiments were repeated at least three times. A representative gel is illustrated.
The hit compounds were subject to secondary assays to determine their ability to reduce the BER capacity when reconstituted with purified core BER enzymes, as well as their inhibitory effects on individual BER enzymes including pol FEN1 and LIG I. The effect of hit compounds on BER capacity and BER enzymes was examined using a denaturing sequencing gel-based assay. 10 μM hit compounds were incubated with 10 nM pol β, 10 nM FEN1 and 20 nM LIG I in BER reaction buffer containing 50 mM Tris-HCl (pH 7.5), 50 mM KCl, 0.1 mM EDTA, 0.1 mg/ml bovine serum albumin, and 0.01% Nonidet P-40 in the presence of 5 mM Mg^2+ and 2 mM ATP. The compounds were initially preincubated with a BER enzyme at varying concentrations for 1 h with rotation. This was followed by the addition of 25 nM ^32P-labeled substrate containing an abasic site, which was precut with 25 or 50 nM APEI. The reaction mixture (20 μL) was incubated at 37° C. for 30 min, and the reaction was terminated by 50 mM EDTA. Substrates, products, and unrepaired BER intermediates were separated by 15% urea-denaturing sequencing gel and detected by a Pharos FX Plus PhosphorImager (Bio-Rad, Hercules, Calif.).
Among the 26 identified compounds, nine were DNA intercalators or inhibitors of human DNA topoisomerases and were excluded from further studies. Thus, […] FDA approved drugs were selected for further testing. To further confirm the inhibitory effects of the lead compounds on BER, the effects of the compounds on BER reactions reconstituted with purified BER core enzymes were initially determined.

Series [2] concerns RWPE1 cells. Put plainly: RTCA impedance proliferation assay, RWPE1. In kind it is cell-based. The conditions noted are these: 10 μM; serum free medium. On the procedure: (6A-6B) PNT1A cells were plated onto xCelligence E-plates at 5×10^4 cells per well in media supplemented with 10% FBS (6A) or CSS (6B). Cells were allowed to attach overnight and treated with vehicle (DMSO) or 10 μM of indicated compounds. Cellular impedance was monitored continuously with 30 min intervals. (6C) RWPE1 cells were plated at 5×10^4 cells per well in serum free medium supplemented with Epidermal Growth Factor (EGF) and Bovine Pituitary Extract ([…]) onto E-plates and treated with 10 μM of indicated compounds as indicated. […] Proliferation assays were done using Roche DP Real Time Cell Analyzer (RTCA), as described by the manufacturer. Background impedance was established after incubating E-plates (Acea Biosciences, San Diego, Calif.) with 50 μL media at room temperature for 30 min and placed in RTCA. Cells were then seeded in 100 μL per well. Cells attached overnight and then treated. During attachment stage and after treatment impedance was measured every 30 min. Impedance is represented by cell index and is calculated as follows: CI=(Zi−Zo)/15Ω where Zi is impedance at an individual time point, and Zo is the background impedance. Average CI was calculated from four wells per treatment at each time point and normalized to the impedance immediately after compound addition.

Series [3] relates to RWPE1 cells. Put plainly: Cell Titer Glo cell viability assay, RWPE1. In kind it is cell-based. The settings on record: 10 μM; after 24 h and 48 h; serum free medium with EGF and BPE. On the procedure:
FIGS. 4A-4B show cellular toxicity of lead compounds in nonmalignant androgen independent prostate-derived cell lines. (4A) PNT1A cells were plated in a 96-well plate at 1×10^4 cell/well in the presence of FBS or CSS. Cells were allowed to attach overnight and were treated with either vehicle (DMSO) or 10 μM of indicated compound. At 24 and 48 h, cellular viability was compared using the Cell Titer Glo Luminescent Cell Viability kit. (4B) RWPE1 cells were plated in a 96-well plate at 1×10^4 cells/well using the specified serum free media. Cells were allowed to attach overnight and treated with 10 μM of indicated compound.
Cell viability was determined using the Cell Titer Glo Cell Viability Assay (Promega, Madison, Wis.), as recommended by manufacturer. All experiments were performed in quadruplicate.
Next, whether the same concentration of compounds decreases the viability of the AR negative and nonmalignant prostate derived cells, PNT1A and RWPE1, was tested.
A general note: In ATP-based viability assays light output follows the ATP content of the culture.

Take `C[C@@H]1[C@H](O)[C@@H](C)/C=C/C=C/CC/C=C/C=C/C=C/C=C/C(O[C@H]2O[C@H](C)[C@@H](O)[C@H](N)[C@@H]2O)CC2O[C@](O)(CC(O)C(O)CCC(O)CC(O)CC(O)CC(=O)O[C@H]1C)CC(O)C2C(=O)O` (stereo partly shown) [nystatin]: the “BER capacity and production of the BER repair product” value (“BER capacity and production” for short) in series [1] is on record as “significantly reduced BER capacity”.
Regarding `C=C1/C(=C\C=C2/CCC[C@]3(C)[C@@H]([C@H](C)/C=C/[C@@H](O)C4CC4)CC[C@@H]23)C[C@@H](O)C[C@@H]1O` [calcipotriene], in series [1], the “BER capacity and production” value was “significantly reduced BER capacity”. The RWPE1 proliferation result in the series on RWPE1 cells [2] is recorded as “slightly inhibited”. The RWPE1 cell viability entry with RWPE1 cells [3] is reported as “significantly decreased”.
With `CC(C)(O/N=C(\C(=O)N[C@@H]1C(=O)N2C(C(=O)[O-])=C(C[n+]3ccccc3)CS[C@H]12)c1csc(N)n1)C(=O)O` [ceftazidime], in series [1], the “BER capacity and production” value is listed as “significantly reduced BER capacity”.
Consider `CC(=O)Oc1cc2c(s1)CCN(C(C(=O)C1CC1)c1ccccc1F)C2` (stereo not shown) [prasugrel], for which the “BER capacity and production” value in series [1] was “significantly reduced BER capacity”. Also, the RWPE1 cell viability result with RWPE1 cells [3] is “significantly decreased”.
